ChEMBL document CHEMBL3885861, “Open TG-GATES”

Organism: Rattus norvegicus
Test: Open TG-GATES - Regimen: Single
Assay type: toxicity, organism-based, Sprague-Dawley
Parameters: regimen Single, gender Male, age 6 weeks
Conditions: in vivo, po, 3 mg/kg, route gavage, dose level Middle; for APTT / Bas / Eos / Fbg / Hb / Ht / Lym / MCH / MCHC / MCV / Mono / PT / Plat / RBC / Ret / WBC: tissue Blood; for KIDNEY_L / KIDNEY_R / KIDNEY_TOTAL: tissue Kidney; for LIVER: tissue Liver

## C#C[C@]1(O)CC[C@H]2[C@@H]3CCc4cc(O)ccc4[C@H]3CC[C@@]21C [ETHINYL ESTRADIOL]
3 h
  TERMINAL_BW: 198.2 g
  APTT: 15.8 s
  Bas: 0%
  Eos: 1%
  Fbg: 257.8 mg/dL
  Hb: 12.9 g/dL
  Ht: 39.4%
  Lym: 75.8%
  MCH: 21.4 pg
  MCHC: 32.9%
  MCV: 65 fL
  Mono: 3.6%
  PT: 12.2 s
  Plat: 110.2 x10_4/uL
  RBC: 607 x10_4/ul
  Ret: 10.6%
  WBC: 86.9 x10_2/uL
  KIDNEY_L: 0.8 g
  KIDNEY_R: 0.8 g
  KIDNEY_TOTAL: 1.7 g
  LIVER: 8.5 g
3 h, tissue Plasma
  ALP: 1631.6 IU/L
  ALT: 47.8 IU/L
  AST: 80.2 IU/L
  BUN: 10.2 mg/dL
  CRE: 0.2 mg/dL
  Cl: 106.8 meq/L
  GLC: 183.4 mg/dL
  IP: 9.2 mg/dL
  K: 3.8 meq/L
  LDH: 49.2 IU/L
  PL: 142.6 mg/dL
  RALB: 2.5 g/dL
  TBIL: 0.038 mg/dL
  TC: 75.4 mg/dL
  TP: 5.4 g/dL
  gamma-GTP: 1.2 IU/L
6 h
  TERMINAL_BW: 195.3 g
  APTT: 14.7 s
  Bas: 0.2%
  Eos: 0.8%
  Fbg: 292.8 mg/dL
  Hb: 13 g/dL
  Ht: 38.9%
  Lym: 69.4%
  MCH: 21.9 pg
  MCHC: 33.4%
  MCV: 65.5 fL
  PT: 12.2 s
  Plat: 115.2 x10_4/uL
  RBC: 594.2 x10_4/ul
  Ret: 9.8%
  WBC: 98.2 x10_2/uL
  KIDNEY_L: 0.9 g
  KIDNEY_R: 0.9 g
  KIDNEY_TOTAL: 1.7 g
  LIVER: 8.1 g
6 h, tissue Plasma
  ALP: 1993.6 IU/L
  ALT: 54.6 IU/L
  AST: 106.2 IU/L
  BUN: 6.6 mg/dL
  CRE: 0.2 mg/dL
  Ca: 10.6 mg/dL
  Cl: 110 meq/L
  DBIL: 0.012 mg/dL
  IP: 10.4 mg/dL
  LDH: 44.6 IU/L
  Na: 144.4 meq/L
  PL: 106.4 mg/dL
  RALB: 2.5 g/dL
  TBIL: 0.038 mg/dL
  TC: 51.8 mg/dL
  TP: 5.4 g/dL
  gamma-GTP: 1.2 IU/L
9 h
  TERMINAL_BW: 196.1 g
  APTT: 15.7 s
  Bas: 0%
  Eos: 1%
  Fbg: 261.6 mg/dL
  Hb: 12.8 g/dL
  Ht: 37.6%
  Lym: 72%
  MCH: 22.3 pg
  MCHC: 33.9%
  MCV: 65.8 fL
  Mono: 3%
  PT: 12.7 s
  Plat: 117.1 x10_4/uL
  RBC: 572.4 x10_4/ul
  Ret: 10.2%
  WBC: 81.1 x10_2/uL
  KIDNEY_L: 0.8 g
  KIDNEY_R: 0.8 g
  KIDNEY_TOTAL: 1.7 g
  LIVER: 7.6 g
9 h, tissue Plasma
  ALP: 1530.6 IU/L
  ALT: 36.4 IU/L
  AST: 72 IU/L
  BUN: 9 mg/dL
  CRE: 0.2 mg/dL
  Ca: 10.4 mg/dL
  Cl: 109.2 meq/L
  DBIL: 0.012 mg/dL
  IP: 10.4 mg/dL
  K: 3.7 meq/L
  LDH: 39.6 IU/L
  Na: 145.4 meq/L
  PL: 95.4 mg/dL
  RALB: 2.6 g/dL
  TBIL: 0.048 mg/dL
  TC: 45.4 mg/dL
  TP: 5.3 g/dL
  gamma-GTP: 1 IU/L
24 h
  TERMINAL_BW: 200 g
  APTT: 18.1 s
  Bas: 0%
  Eos: 1%
  Fbg: 220.8 mg/dL
  Ht: 39%
  Lym: 77.8%
  MCH: 22 pg
  MCHC: 34%
  MCV: 64.6 fL
  Mono: 4%
  PT: 13.4 s
  Plat: 110.4 x10_4/uL
  RBC: 604.4 x10_4/ul
  Ret: 8.1%
  WBC: 92.7 x10_2/uL
  KIDNEY_L: 0.9 g
  KIDNEY_R: 0.9 g
  KIDNEY_TOTAL: 1.8 g
  LIVER: 9.6 g
24 h, tissue Plasma
  ALP: 2004.2 IU/L
  ALT: 43 IU/L
  AST: 70.6 IU/L
  BUN: 10.8 mg/dL
  CRE: 0.2 mg/dL
  Ca: 10.8 mg/dL
  Cl: 106.4 meq/L
  DBIL: 0.024 mg/dL
  IP: 7 mg/dL
  K: 4.3 meq/L
  LDH: 62.8 IU/L
  PL: 106.4 mg/dL
  RALB: 2.5 g/dL
  TBIL: 0.042 mg/dL
  TC: 39 mg/dL
  TP: 5.3 g/dL
